{"source": "patent US7390870B2", "about": "“Immune-enhancing peptides” (Posco, priority 2001, dated 2008)", "type_in_all_cases": "cell-based", "key": {"[1]": {"test_system": "Jurkat human T cell leukemia cells", "test": "[Ca2+]i increase in Jurkat cells (fura-2)", "conditions": "FIG. 4A; MFYLPM up to 30 μM", "procedure": "(§1) The level of [Ca^2+]i was determined by Grynkiewicz's method using fura-2/AM (21). Briefly, prepared cells were incubated with 3 μM fura-2/AM at 37° C. for 50 minutes in a fresh serum-free RPMI 1640 medium under continuous stirring. 2×10^6 cells were aliquoted for each assay in Ca^2+-free Locke's solution (154 mM NaCl, 5.6 mM KCl1.2 mM MgCl2, 5 mM HEPES, pH 7.3, 10 mM glucose, and 0.2 mM EGTA). The fluorescence changes at the dual excitation wavelengths of 340 nm and 380 nm and the emission wavelength of 500 nm were measured, and the calibrated fluorescence ratio was translated into [Ca^2+]i.\nFrom the fact that HFYLPM, MFYLPM, and HFYLPm stimulate human monocytes, effects of the peptides on other leukocytes such as neutrophils were evaluated. Prepared human primary monocytes, neutrophils, cultured HL60, Jurkat, U937, NIH3T3, 3Y1, 3T3L1, and PC12 cells were loaded with fura-2 and stimulated with effective concentrations of the three peptides (1 μM for monocyte and neutrophil; 10 μM for HL60 and Jurkat; 20 μM for U937, NIH3T3, 3Y1, 3T3L1, and PC12). The peak level of the [Ca^2+]i increase was recorded and superoxide generation was measured using cytochrome c reduction assay. The results are shown FIG. 4. The data of FIG. 4 are presented as means ±S.E. from at least three independent experiments."}, "[2]": {"test_system": "HL60 human promyelocytic cells", "test": "[Ca2+]i increase in undifferentiated HL60 cells (fura-2)", "procedure": "as §1\nFrom the fact that HFYLPM, MFYLPM, and HFYLPm stimulate human monocytes, effects of the peptides on other leukocytes such as neutrophils were evaluated. […] The peak level of the [Ca^2+]i increase was recorded and superoxide generation was measured using cytochrome c reduction assay. […]\nA test where the three peptides on HL60 cells that had differentiated into granulocytes after having been cultured in the presence of 1.25% DMSO for 4 days was performed. […] The peak level of the [Ca^2+]i increase was recorded. […]"}, "human monocytes": {"test_system": "human monocytes", "test": "Checkboard analysis of monocyte migration across polycarbonate membrane", "conditions": "2 hr", "procedure": "Chemotaxis assays of the peptide were performed using multiwell chambers (Neuroprobe Inc., Gaithersburg, Md.) (20). Briefly, the prepared isolated human monocytes were suspended in RPMI at a concentration of 1×10^6 cells/ml of serum-free RPMI, and 25 □ of the suspension were placed onto the upper well of a 96-well chemotaxis chamber that was separated by a […] filter with a 5 □ pore size (3 □ diameter pores not coated with polyvinylpyrrolidone for neutrophils) from peptides or an fMLF-containing lower well. After incubation for 2 hours (90 minutes for neutrophils) at 37° C., non-migrated cells were removed by scraping them out, and cells that migrated across the filter were dehydrated, fixed, and stained with hematoxylin (Sigma, St. Louis, Mo.). The stained cells in five randomly chosen high power fields (HPF) (400×) in that well were then counted (21). The numbers of migrated cells were determined by counting them in a high power field (400×). For a checkboard analysis, cells were re-suspended in RPMI containing various concentrations of the peptide just before transferring them to the upper wells as described before (22).\nTo distinguish whether the peptide-induced monocyte migration is chemotaxis or chemokinesis, a checkboard analysis was performed as described above (22, 26)."}}, "note": "No end group written: not given here.", "data": [{"substance": "Met-Phe-Tyr-Leu-Pro-Met-CONH2 (MFYLPM-NH2)", "values": [{"measurement": "intracellular calcium mobilization in Jurkat cells", "setting": "[1]", "result": "did not cause a similar intracellular calcium mobilization"}, {"measurement": "[Ca2+]i increase in HL60 cells", "setting": "[2]; FIG. 4A, HFYLPM up to 20 μM", "result": "caused a [Ca^2+]i increase"}, {"measurement": "[Ca2+]i rise in undifferentiated HL60 cells", "setting": "[2]; FIG. 5, various concentrations", "result": "stimulated both undifferentiated and differentiated HL60 cells"}, {"measurement": "migrated monocytes in 5 HPF", "setting": "human monocytes; peptide below 0 nM, above 10 nM", "result": "11.3 ± 2.42"}, {"measurement": "migrated monocytes in 5 HPF", "setting": "human monocytes; peptide below 0 nM, above 100 nM", "result": "15.0 ± 3.50"}, {"measurement": "migrated monocytes in 5 HPF", "setting": "human monocytes; peptide below 0 nM, above 1000 nM", "result": "11.0 ± 2.67"}, {"measurement": "migrated monocytes in 5 HPF", "setting": "human monocytes; peptide below 10 nM, above 0 nM", "result": "198 ± 32.3"}, {"measurement": "migrated monocytes in 5 HPF", "setting": "human monocytes; peptide below 10 nM, above 10 nM", "result": "33.7 ± 8.93"}, {"measurement": "migrated monocytes in 5 HPF", "setting": "human monocytes; peptide below 10 nM, above 100 nM", "result": "16.0 ± 3.16"}, {"measurement": "migrated monocytes in 5 HPF", "setting": "human monocytes; peptide below 10 nM, above 1000 nM", "result": "12.3 ± 3.43"}, {"measurement": "migrated monocytes in 5 HPF", "setting": "human monocytes; peptide below 100 nM, above 0 nM", "result": "557 ± 29.5"}, {"measurement": "migrated monocytes in 5 HPF", "setting": "human monocytes; peptide below 100 nM, above 10 nM", "result": "425 ± 48.3"}, {"measurement": "migrated monocytes in 5 HPF", "setting": "human monocytes; peptide below 100 nM, above 100 nM", "result": "66.3 ± 14.9"}, {"measurement": "migrated monocytes in 5 HPF", "setting": "human monocytes; peptide below 100 nM, above 1000 nM", "result": "18.0 ± 4.05"}, {"measurement": "migrated monocytes in 5 HPF", "setting": "human monocytes; peptide below 1000 nM, above 0 nM", "result": "484 ± 43.6"}, {"measurement": "migrated monocytes in 5 HPF", "setting": "human monocytes; peptide below 1000 nM, above 10 nM", "result": "395 ± 38.5"}, {"measurement": "migrated monocytes in 5 HPF", "setting": "human monocytes; peptide below 1000 nM, above 100 nM", "result": "198 ± 26.7"}, {"measurement": "migrated monocytes in 5 HPF", "setting": "human monocytes; peptide below 1000 nM, above 1000 nM", "result": "76.7 ± 18.9"}]}]}
